Measured values: patent US20230192705A1, “SHP2 INHIBITORS, COMPOSITIONS AND USES THEREOF” (Betta Pharmaceuticals Co., Ltd, priority 2020, published 2023)

Target: T1, SHP2 (Homo sapiens, UniProt Q06124)
T1 sequence (Q06124 1-593): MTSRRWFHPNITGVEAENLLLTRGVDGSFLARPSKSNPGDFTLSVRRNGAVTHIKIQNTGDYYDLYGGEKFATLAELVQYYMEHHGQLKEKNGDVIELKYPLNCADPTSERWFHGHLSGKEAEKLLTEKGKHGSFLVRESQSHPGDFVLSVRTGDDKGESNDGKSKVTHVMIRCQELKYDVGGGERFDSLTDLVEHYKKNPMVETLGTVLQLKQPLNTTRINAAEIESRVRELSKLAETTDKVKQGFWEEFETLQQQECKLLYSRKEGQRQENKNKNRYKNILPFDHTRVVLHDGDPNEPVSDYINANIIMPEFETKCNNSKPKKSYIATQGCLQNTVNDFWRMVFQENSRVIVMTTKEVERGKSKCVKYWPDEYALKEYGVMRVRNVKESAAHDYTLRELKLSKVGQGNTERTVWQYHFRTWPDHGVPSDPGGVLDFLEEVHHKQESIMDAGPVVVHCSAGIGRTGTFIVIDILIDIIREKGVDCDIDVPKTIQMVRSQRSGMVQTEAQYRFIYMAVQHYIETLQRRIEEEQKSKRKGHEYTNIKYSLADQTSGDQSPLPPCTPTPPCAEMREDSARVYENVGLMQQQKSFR
Test: SHP2 allosteric inhibitor enzyme activity assay (DiFMUP fluorescence)
Assay type: biochemical
Conditions: class symbols
Procedure, shortened: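 SHP2 activated by 0.5 μM IRS1_pY1172(dPEG8)pY1222 peptide, 0.2 ng enzyme per well, 1 h at room temperature with compound (1 μM top, 3-fold series), then DiFMUP substrate 1 h. Buffer: 60 mM HEPES, 75 mM NaCl, 75 mM KCl, 0.05% BRIJ-35, 1 mM EDTA, 5 mM DTT. Fluorescence ex 340/em 450 nm; IC50 by variable-slope fit.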

CC1(C)C=C(c2n[nH]c3nc(N4CCC5(CC4)Cc4ccccc4[C@H]5N)[nH]c(=O)c23)c2cn(C3CC3)nc2C1 [Example 155, (S)-6-(1-amino-1,3-dihydrospiro[indene-2,4′-piperidin]-1′-y1)-3-(2-cyclopropyl-6,6-dimethyl-6,7-dihydro-2H-indazol-4-yl)-1,5-dihydro-4H-pyrazolo[3,4-d]pyrimidin-4-one]
IC50: 20 to 60 nM

CC1(C)C=C(c2n[nH]c3nc(N4CCC5(CC4)Cc4ccccc4[C@H]5N)[nH]c(=O)c23)c2sc(N)nc2C1 [Example 159, (S)-6-(1-amino-1,3-dihydrospiro[indene-2,4′-piperidin]-1′-yl)-3-(2-amino-5,5-dimethyl-4,5-dihydrobenzo[d]thiazol-7-yl)-1,5-dihydro-4H-pyrazolo[3,4-d]pyrimidin-4-one]
IC50: 20 to 60 nM

CC1(C)C=C(c2n[nH]c3nc(N4CCC5(CC4)Cc4ccccc4[C@H]5N)[nH]c(=O)c23)c2cc(Br)cnc2C1 [Example 160, (S)-6-(1-amino-1,3-dihydrospiro[indene-2,4′-piperidin]-1′-yl)-3-(3-bromo-7,7-dimethyl-7,8-dihydroquinolin-5-yl)-1,5-dihydro-4H-pyrazolo[3,4-d]pyrimidin-4-one]
IC50: ≤ 20 nM

CC1(C)C=C(c2n[nH]c3nc(N4CCC5(CC4)Cc4ccccc4[C@H]5N)[nH]c(=O)c23)c2ccc(Cl)nc2C1 [Example 161, (S)-6-(1-amino-1,3-dihydrospiro[indene-2,4′-piperidin]-1′-yl)-3-(2-chloro-7,7-dimethyl-7,8-dihydroquinolin-5-yl)-1,5-dihydro-4H-pyrazolo[3,4-d]pyrimidin-4-one]
IC50: ≤ 20 nM

CC1(C)C=C(c2n[nH]c3nc(N4CCC5(CC4)Cc4ccccc4[C@H]5N)[nH]c(=O)c23)c2ccc(C#N)nc2C1 [Example 162, (S)-5-(6-(1-amino-1,3-dihydrospiro[indene-2,4′-piperidin]-1′-yl)-4-oxo-4,5-dihydro-1H-pyrazolo[3,4-d]pyrimidin-3-yl)-7,7-dimethyl-7,8-dihydroquinoline-2-carbonitrile]
IC50: ≤ 20 nM

CC1(C)C=C(c2n[nH]c3nc(N4CCC5(CC4)Cc4ccccc4[C@H]5N)[nH]c(=O)c23)c2cc(C#N)cnc2C1 [Example 163, (S)-5-(6-(1-amino-1,3-dihydrospiro[indene-2,4′-piperidin]-1′-yl)-4-oxo-4,5-dihydro-1H-pyrazolo[3,4-d]pyrimidin-3-yl)-7,7-dimethyl-7,8-dihydroquinoline-3-carbonitrile]
IC50: ≤ 20 nM

Cc1cc2c(nn1)CC(C)(C)C=C2c1n[nH]c2nc(N3CCC4(CC3)Cc3ccccc3[C@H]4N)[nH]c(=O)c12 [Example 164, (S)-6-(1-amino-1,3-dihydrospiro[indene-2,4′-piperidin]-1′-yl)-3-(3,7,7-trimethyl-7,8-dihydrocinnolin-5-yl)-1,5-dihydro-4H-pyrazolo[3,4-d]pyrimidin-4-one]
IC50: ≤ 20 nM

N[C@@H]1c2ccccc2CC12CCN(c1nc3[nH]nc(C4=CCOc5cc(Cl)ccc54)c3c(=O)[nH]1)CC2 [Example 167, (S)-6-(1-amino-1,3-dihydrospiro[indene-2,4′-piperidin]-1′-yl)-3-(7-chloro-2H-chromen-4-yl)-1,5-dihydro-4H-pyrazolo[3,4-d]pyrimidin-4-one]
IC50: ≤ 20 nM

N[C@@H]1c2ccccc2CC12CCN(c1nc3[nH]nc(C4=CCOc5cc(C(F)(F)F)ccc54)c3c(=O)[nH]1)CC2 [Example 168, (S)-6-(1-amino-1,3-dihydrospiro[indene-2,4′-piperidin]-1′-yl)-3-(7-(trifluoromethyl)-2H-chromen-4-yl)-1,5-dihydro-4H-pyrazolo[3,4-d]pyrimidin-4-one]
IC50: ≤ 20 nM

N[C@@H]1c2ccccc2CC12CCN(c1nc3[nH]nc(C4=CCC(F)(F)c5ncccc54)c3c(=O)[nH]1)CC2 [Example 169, (S)-6-(1-amino-1,3-dihydrospiro[indene-2,4′-piperidin]-1′-yl)-3-(8,8-difluoro-7,8-dihydroquinolin-5-yl)-1,5-dihydro-4H-pyrazolo[3,4-d]pyrimidin-4-one]
IC50: ≤ 20 nM

N[C@@H]1c2ccccc2CC12CCN(c1nc3[nH]nc(C4=CC5(COC5)c5ccccc54)c3c(=O)[nH]1)CC2 [Example 170, (S)-6-(1-amino-1,3-dihydrospiro[indene-2,4′-piperidin]-1′-yl)-3-(spiro[indene-1,3′-oxetan]-3-yl)-1,5-dihydro-4H-pyrazolo[3,4-d]pyrimidin-4-one]
IC50: ≤ 20 nM

CN1CC2(C=C(c3n[nH]c4nc(N5CCC6(CC5)Cc5ccccc5[C@H]6N)[nH]c(=O)c34)c3ccccc32)C1 [Example 171, (S)-6-(1-amino-1,3-dihydrospiro[indene-2,4′-piperidin]-1′-yl)-3-(1-methylspiro[azetidine-3,1′-inden]-3′-yl)-1,5-dihydro-4H-pyrazolo[3,4-d]pyrimidin-4-one]
IC50: ≤ 20 nM

N[C@@H]1c2ccccc2CC12CCN(c1nc3[nH]nc(C4=CCc5ccccc54)c3c(=O)[nH]1)CC2 [Example 172, (S)-6-(1-amino-1,3-dihydrospiro[indene-2,4′-piperidin]-1′-yl)-3-(1H-inden-3-yl)-1,5-dihydro-4H-pyrazolo[3,4-d]pyrimidin-4-one]
IC50: ≤ 20 nM

N[C@@H]1c2ccccc2CC12CCN(c1nc3[nH]nc(C4=CCOc5ccccc54)c3c(=O)[nH]1)CC2 [Example 173, (S)-6-(1-amino-1,3-dihydrospiro[indene-2,4′-piperidin]-1′-yl)-3-(2H-chromen-4-yl)-1,5-dihydro-4H-pyrazolo[3,4-d]pyrimidin-4-one]
IC50: ≤ 20 nM

N[C@@H]1c2ccccc2CC12CCN(c1nc3[nH]nc(-c4cc(=O)oc5ccccc45)c3c(=O)[nH]1)CC2 [Example 174, (S)-6-(1-amino-1,3-dihydrospiro[indene-2,4′-piperidin]-1′-yl)-3-(2-oxo-2H-chromen-4-yl)-1,5-dihydro-4H-pyrazolo[3,4-d]pyrimidin-4-one]
IC50: ≤ 20 nM

N[C@@H]1c2ccccc2CC12CCN(c1nc3[nH]nc(C4=CC(F)(F)c5ccccc54)c3c(=O)[nH]1)CC2 [Example 175, (S)-6-(1-amino-1,3-dihydrospiro[indene-2,4′-piperidin]-1′-yl)-3-(1,1-difluoro-1H-inden-3-yl)-1,5-dihydro-4H-pyrazolo[3,4-d]pyrimidin-4-one]
IC50: ≤ 20 nM

CC1(C)C=C(c2n[nH]c3nc(N4CCC5(CC4)Cc4ccccc4[C@H]5N)[nH]c(=O)c23)c2ccccc21 [Example 176, (S)-6-(1-amino-1,3-dihydrospiro[indene-2,4′-piperidin]-1′-yl)-3-(1,1-dimethyl-1H-inden-3-yl)-1,5-dihydro-4H-pyrazolo[3,4-d]pyrimidin-4-one]
IC50: ≤ 20 nM

N[C@@H]1c2ccccc2CC12CCN(c1nc3[nH]nc(C4=CCNc5ccccc54)c3c(=O)[nH]1)CC2 [Example 177, (S)-6-(1-amino-1,3-dihydrospiro[indene-2,4′-piperidin]-1′-yl)-3-(1,2-dihydroquinolin-4-yl)-1,5-dihydro-4H-pyrazolo[3,4-d]pyrimidin-4-one]
IC50: ≤ 20 nM

CC1(C)NC=C(c2n[nH]c3nc(N4CCC5(CC4)Cc4ccccc4[C@H]5N)[nH]c(=O)c23)c2ccccc21 [Example 179, (S)-6-(1-amino-1,3-dihydrospiro[indene-2,4′-piperidin]-1′-yl)-3-(1,1-dimethyl-1,2-dihydroisoquinolin-4-yl)-1,5-dihydro-4H-pyrazolo[3,4-d]pyrimidin-4-one]
IC50: ≤ 20 nM

N[C@@H]1c2ccccc2CC12CCN(c1nc3[nH]nc(C4=CCS(=O)(=O)c5ccccc54)c3c(=O)[nH]1)CC2 [Example 180, (S)-6-(1-amino-1,3-dihydrospiro[indene-2,4′-piperidin]-1′-yl)-3-(1,1-dioxido-2H-thiochromen-4-yl)-1,5-dihydro-4H-pyrazolo[3,4-d]pyrimidin-4-one]
IC50: ≤ 20 nM

N[C@@H]1c2ccccc2CC12CCN(c1nc3[nH]nc(C4=CNS(=O)(=O)c5ccccc54)c3c(=O)[nH]1)CC2 [Example 181, (S)-6-(1-amino-1,3-dihydrospiro[indene-2,4′-piperidin]-1′-yl)-3-(1,1-dioxido-2H-benzo[e][1,2]thiazin-4-yl)-1,5-dihydro-4H-pyrazolo[3,4-d]pyrimidin-4-one]
IC50: ≤ 20 nM

N[C@@H]1c2ccccc2CC12CCN(c1nc3[nH]nc(C4=CS(=O)(=O)Cc5ccccc54)c3c(=O)[nH]1)CC2 [Example 182, (S)-6-(1-amino-1,3-dihydrospiro[indene-2,4′-piperidin]-1′-yl)-3-(2,2-dioxido-1H-isothiochromen-4-yl)-1,5-dihydro-4H-pyrazolo[3,4-d]pyrimidin-4-one]
IC50: ≤ 20 nM

N[C@@H]1c2ccccc2CC12CCN(c1nc3[nH]nc(C4=CS(=O)(=O)Nc5ccccc54)c3c(=O)[nH]1)CC2 [Example 183, (S)-6-(1-amino-1,3-dihydrospiro[indene-2,4′-piperidin]-1′-yl)-3-(2,2-dioxido-1H-benzo[c][1,2]thiazin-4-yl)-1,5-dihydro-4H-pyrazolo[3,4-d]pyrimidin-4-one]
IC50: ≤ 20 nM
